The values that follow are results of earlier work, collected in patent US10463679B2, “Compressed capsules for giving birth to males” (priority 2016, dated 2019).

The conditions of data set [1]: sodium and chloride intake per day.
The next data set relates to mice. The settings on record: for mice.
The conditions of data set [2]: manufacturer's web site and prescription accompanying Florinef tablet.
The conditions of data set [3]: one liter administered intravenously; glucose 5% + water, saline 9% sodium chloride + water, albumin.

For the compound `[Cl-].[Na+]` [Sodium chloride], the harmful dose in data set [1] was 1000 g per day. In addition, the lethal dose in the data set with mice is listed as 2.5 g/kg per day.
In the case of `C[C@]12CCC(=O)C=C1CC[C@H]1[C@@H]3CC[C@](O)(C(=O)CO)[C@@]3(C)C[C@H](O)[C@@]12F` [Fludrocortisone], in data set [2], the “side effects of the drug” value was “skin thinning and fragility”.
Saline: in data set [3], the “distribution of the solution among the three regions (intracellular, intercellular, blood vessels)” value is recorded as “distributed among the three regions but precipitated in the intercellular region”.
